Here are results for seven compounds from patent US4176189A, “Insecticidal and acaricidal hydantoin N-methylol esters” (Sumitomo Chemical Company, Limited, priority 1977, dated 1979).

What all share (type): in vivo
For assay [1], the system named is northern house mosquito female adults (Culex pipiens pallens). Nature of the assay: Oil spray in (70 cm)^3 glass chamber, northern house mosquito female adults, KT50 and mortality (Experimental Example 2). The note with it: for mortality at 0.1 %: Culex pipiens. As for the experimental part: (§1) 0.1 Part of each of the present compounds was dissolved in kerosene and made up to 100 parts with kerosene. Thus, the oil spray of each compound was obtained. Ten northern house mosquito female adults (Culex pipiens pallens) and 10 housefly adults (Musca domestica) were liberated in a (70 cm)^3 glass chamber. 0.7 ml of the oil spray was applied and the number of knocked down insects was counted with the lapse of time. The value of KT50 was obtained from the mean knock-down ratio of three replications according to Finney's graphic method. After 10 minutes, the knocked down insects were collected and transferred to a recovery container and fed with a 5% sugar solution. After 24 hours, the dead and alive were examined.

In assay [2] the test system is housefly female adults (Musca domestica). Description: Housefly female adults on treated filter paper in polyethylene cup, mortality after 48 hours (Experimental Example 1). How it is done: Ten percent emulsifiable concentrates were prepared as in the Preparation example 3.
At the bottom of a polyethylene cup of 5.5 cm in diameter was placed a filter paper of the same size. 0.75 Ml of a 200-fold aqueous dilute solution of each emulsifiable concentrate (corresponding to 500 ppm) was dropped on the filter paper, and 30 mg of sucrose as a food was uniformly placed. Ten housefly female adults (Musca domestica) were liberated in the cup which was then covered with a lid. After 48 hours, the dead and alive were examined to obtain mortality (4 replications).

Assay [3] deals with housefly adults (Musca domestica). Nature of the assay: Oil spray in (70 cm)^3 glass chamber, housefly adults, KT50 and mortality (Experimental Example 2). The note with it: for mortality at 0.1 %: Musca domestica. How it is done:
as §1

The test system of assay [4] is Carmine mite (Tetranychus cinnabarinus). Description: Carmine mite on potted kidney bean, damage after 10 days (Experimental Example 12). As to conditions: 200-fold aqueous dilution of emulsifiable concentrate of Preparation example 3, 10 ml/pot. How it is done:
Carmine mite female adults (Tetranychus cinnabarinus) were made parasitic on leaves of the potted kidney bean (primordial leaf stage) which had elapsed 9 days after sowing, at a rate of 10-15/leaf, and bred at 27° C. for a week in a constant temperature room. […] At this time, a 200-fold aqueous dilute solution of each of the emulsifiable concentrates formulated from the present compounds (2), (6), (8), (9) and (13) according to Preparation example 3 was sprayed at a rate of 10 ml/pot by means of a turn table.

The test system of assay [5] is adult German cockroaches (Blattella germanica). Nature of the assay: Flushing out of German cockroaches from shelter (Experimental Example 8). The note with it: 0.7 ml of 0.1% oil spray. As for the experimental part: Ten adult German cockroaches (Blattella germanica) were liberated in a plywood-made trigonal prism like shelter with diet and water. The shelter containing cockroaches was made stand opening upward in a glass chamber (70 cm)^3, and 0.7 ml of 0.1% oil spray of each compound was applied to the chamber. The number of flushed out insects was counted with the lapse of time.

For assay [6], the system named is northern house mosquito female adults (Culex pipiens pallens). Description: Oil spray in (70 cm)^3 glass chamber, knock down of mosquitoes at 10 minutes (Experimental Example 3). The note with it: oil sprays of Preparation example 1 (0.2 part in 100), 0.7 ml, 10 minutes after spraying, read-out: KD%. From the text: Ten northern house mosquito female adults (Culex pipiens pallens) were liberated in a (70 cm)^3 glass chamber.

The mark [7] stands for this setting: northern house mosquito female adult, 0.1% oil spray, 0.7 ml.
The mark [8] stands for this setting: 200-fold aqueous dilution of emulsifiable concentrate (500 ppm), 48 hours, housefly female adults, read-out: Mortality.
[9] abbreviates: housefly adult, 0.1% oil spray, 0.7 ml.

Where two headings read alike, the source gives them in different places.

A word on the mortality: it is the share of the test organisms that died.

For the compound `C#CCN1CC(=O)N(COC(=O)C2C(C)(C)C2(C)C)C1=O` [Present compound (9), 1-Propargyl-3-hydantoinylmethyl 2,2,3,3-tetramethylcyclopropanecarboxylate], the mortality at 0.1 % in assay [1] (northern house mosquito female adult, 0.1% oil spray, 0.7 ml, after 24 hours, read-out: Mortality) is 95%; in assay [3] (housefly adult, 0.1% oil spray, 0.7 ml, after 24 hours, read-out: Mortality) it was 20%. In addition, the KT50 in assay [1] (setting [7]) was 35 s; in assay [3] (setting [9]), 150 s. For the same compound, the mortality at 500 µg/mL in assay [2] (setting [8]) was found to be 100%. The “damage of kidney bean by the mites” value in assay [4] is given as “hardly any damage was observed”. For the same compound, the Flushing out worked out at 15% in assay [5] (38"); 55% in assay [5] (75"); 60% in assay [5] (150"); 70% in assay [5] (300"); 80% in assay [5] (600").

As for `C#CCN1CC(=O)N(COC(=O)[C@@H]2[C@@H](C=C(F)F)C2(C)C)C1=O` [Present compound (6)], the values for the mortality at 0.1 % in assay [1] (24 h) and in assay [3] (24 h) were 100% and 70%, respectively. Moreover, the KT50 in assay [1] (setting [7]) was found to be 19 s; in assay [3] (setting [9]), 46 s. Moreover, in assay [2] (48 h), the mortality at 500 µg/mL amounted to 100%. Also, the “damage of kidney bean by the mites” value in assay [4] is “hardly any damage was observed”. Besides, the Flushing out is reported as 47% in assay [5] (38"); 74% in assay [5] (75"); 79% in assay [5] (150"); 79% in assay [5] (300"); 100% in assay [5] (600").

Turning to `C=CCN1CC(=O)N(COC(=O)C2C(C=C(Cl)Cl)C2(C)C)C1=O` (centres unmarked) [Present compound (2), 1-Allyl-3-hydantoinylmethyl 2,2-dimethyl-3-(2,2-dichlorovinyl)-cyclopropanecarboxylate], in assay [2] (48 h), the mortality at 500 µg/mL was 100%. In addition, the “damage of kidney bean by the mites” value in assay [4] was “hardly any damage was observed”. In addition, in assay [6], the pest or weed control at 0.2 % came out at 100%.

In the case of `C#CCN1CC(=O)N(COC(=O)C(c2ccc(Cl)cc2)C(C)C)C1=O` (stereo not drawn) [Present compound (13), 1-Propargyl-3-hydantoinylmethyl α-(4-chlorophenyl)isovalerate], the mortality at 500 µg/mL in assay [2] (setting [8]) worked out at 100%. Moreover, in assay [4], the “damage of kidney bean by the mites” value is on record as “hardly any damage was observed”. Besides, the pest or weed control at 0.2 % in assay [6] stood at 90%.

Consider `C#CCN1CC(=O)N(COC(=O)[C@@H]2[C@@H](C=C3CCCC3)C2(C)C)C1=O` (relative stereo) [Present compound (8), 1-Propargyl-3-hydantoinylmethyl 2,2-dimethyl-3-cyclopentylidenemethylcyclopropanecarboxylate], for which the results for the mortality at 0.1 % in assay [1] (24 h) and in assay [3] (24 h) were 95% and 25%, respectively. The KT50 in assay [1] (setting [7]) worked out at 75 s; in assay [3] (setting [9]), 150 s. In assay [2] (48 h), the mortality at 500 µg/mL worked out at 100%. Besides, in assay [4], the “damage of kidney bean by the mites” value is recorded as “hardly any damage was observed”.

Consider `C=CCN1C(=O)CN(COC(=O)C2C(C=C(Cl)Cl)C2(C)C)C1=O` (centres unmarked) [Present compound (5), 3-Allyl-1-hydantoinylmethyl 2,2-dimethyl-3-(2,2-dichlorovinyl)-cyclopropanecarboxylate], for which the mortality at 500 µg/mL in assay [2] (48 h) is 100%. For the same compound, the pest or weed control at 0.2 % in assay [6] came to 100%.

As to `C#CCN1CC(=O)N(COC(=O)C(c2cccc(Cl)c2)C(C)C)C1=O` (stereo not drawn) [Present compound (14), 1-Propargyl-3-hydantoinylmethyl α-(3-chlorophenyl)isovalerate], the mortality at 500 µg/mL in assay [2] (setting [8]) was determined as 100%. The pest or weed control at 0.2 % in assay [6] came to 85%.
